Data published in patent US9173395B2, “Use of substituted isoquinolinones, isoquinolindiones, isoquinolintriones and dihydroisoquinolinones or in each case salts thereof as active agents against abiotic stress in plants” (BAYER INTELLECTUAL PROPERTY GMBH, priority 2011, dated 2015).

Legend:
TRZAS = assay: Drought stress test on crop plants, visual damage rating, efficacy EF; type: in vivo, Triticum aestivum; conditions: dosage 25 g/ha, mean of three results
Experimental: (§1) Seeds of monocotyledonous and dicotyledonous crop plants were laid out in sandy loam in wood-fiber pots, covered with soil and cultivated in a greenhouse under good growth conditions. The test plants were treated at the early leaf stage (BBCH10-BBCH13). To ensure uniform water supply before commencement of stress, the potted plants were supplied with the maximum amount of water immediately beforehand by dam irrigation and, after application, transferred into plastic inserts in order to prevent subsequent, excessively rapid drying. The compounds according to the invention, formulated in the form of wettable powders (WP), wettable granules (WG), suspension concentrates (SC) or emulsion concentrates (EC), were sprayed onto the green parts of the plants as an aqueous suspension at an equivalent water application rate of 600 I/ha with addition of 0.2% wetting agent (agrotin). Substance application is followed immediately by stress treatment of the plants (cold or drought stress). […]
(§2) After the recovery phase had ended, the intensities of damage were rated visually in comparison to untreated, unstressed controls of the same age (in the case of drought stress) or the same growth stage (in the case of cold stress). The intensity of damage was first recorded as a percentage (100%=plants have died, 0%=like control plants). […]

BRSNS = assay: as above; type: in vivo, Brassica napus; conditions: dosage 25 g/ha, mean of three results
Experimental: as §1, §2

## O=c1[nH]ccc2ccc(-c3ccc(Cl)cc3F)cc12 [I.1-252, 7-(4-chloro-2-fluorophenyl)isoquinolin-1(2H)-one]
TRZAS
  EF (TRZAS): >5%
BRSNS
  EF (BRSNS): >5%
